The record followed here is PubChem BioAssay AID248 (DTP/NCI, 2004).

“And” between values parts separate entries of the source, which are not always exact repeats. Equal values may be shown once. Inconclusive results and toxic doses are left out.

This test has as its system L1210 leukemia ip in BDF1 mice, survival T/C. Briefly: NCI In Vivo Anticancer Drug Screen. Data for tumor model L1210 Leukemia (intraperitoneal) in B6D2F1 (BDF1) mice. To be noted: endpoint: mean survival time, higher = longer survival. The procedure, abridged:
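Read-out is survival time, reported as the treated-group measurement over the vehicle-control measurement.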

Setting [1] is: dose: 100.0 mg/kg/injection, schedule: Q04DX003 (ip), vehicle: Klucel (hydroxypropylcellulose) (HPC).
Where [2] appears, read: dose: 200.0 mg/kg/injection, schedule: Q04DX003 (ip), vehicle: Klucel (hydroxypropylcellulose) (HPC).
The mark [3] stands for this setting: dose: 100.0 mg/kg/injection, schedule: Q01DX001 (ip), vehicle: carboxymethylcellulose (CMC).
[4] abbreviates: dose: 200.0 mg/kg/injection, schedule: Q01DX001 (ip), vehicle: carboxymethylcellulose (CMC).
Setting [5] is: dose: 400.0 mg/kg/injection, schedule: Q01DX001 (ip), vehicle: carboxymethylcellulose (CMC).
Where [6] appears, read: dose: 100.0 mg/kg/injection, schedule: Q01DX009 (ip), vehicle: Klucel (hydroxypropylcellulose) (HPC).
The mark [7] stands for this setting: dose: 50.0 mg/kg/injection, schedule: Q01DX001 (ip), vehicle: saline.
Where [8] appears, read: dose: 100.0 mg/kg/injection, schedule: Q01DX001 (ip), vehicle: saline.
[9] abbreviates: dose: 100.0 mg/kg/injection, schedule: Q04DX003 (ip), vehicle: saline.
[10] abbreviates: dose: 200.0 mg/kg/injection, schedule: Q04DX003 (ip), vehicle: saline.
Where [11] appears, read: dose: 400.0 mg/kg/injection, schedule: Q01DX001 (ip), vehicle: saline.
The mark [12] stands for this setting: dose: 200.0 mg/kg/injection, schedule: Q01DX001 (ip), vehicle: saline.

Regarding `O=C(O)c1ccc(/C=N\Nc2ccccc2)cc1`, the T/C by setting is: (dose: 50.0 mg/kg/injection, schedule: Q04DX003 (ip), vehicle: Klucel (hydroxypropylcellulose) (HPC)) 95 % of control; under setting [1], 106 % of control; under setting [2], 100 % of control; (dose: 400.0 mg/kg/injection, schedule: Q04DX003 (ip), vehicle: Klucel (hydroxypropylcellulose) (HPC)) 97 % of control.
For `S=C(NP(=S)(NC(=S)N1CC1)NC(=S)N1CC1)N1CC1`, the T/C was 95 % of control under setting [3], 91 % of control under setting [4] and 90 % of control under setting [5].
As for `CC1(C)OC2COC(c3[nH]nc(C(N)=O)c3C(=O)NN)C2O1` (stereo not given), the T/C was 103 % of control (dose: 100.0 mg/kg/injection, schedule: Q01DX005 (ip), vehicle: saline) and 97 % of control (dose: 200.0 mg/kg/injection, schedule: Q01DX005 (ip), vehicle: saline).
In the case of `CCOC(=O)/C(=C\c1ccccc1)P(=O)(OCC)c1ccccc1` (stereo not given), the T/C (dose: 25.0 mg/kg/injection, schedule: Q01DX009 (ip), vehicle: Klucel (hydroxypropylcellulose) (HPC)) is 91 % of control; the T/C (dose: 50.0 mg/kg/injection, schedule: Q01DX009 (ip), vehicle: Klucel (hydroxypropylcellulose) (HPC)) was 92 % of control; the T/C under setting [6] was 96 % of control; the T/C under setting [1] is 95 % of control; the T/C under setting [2] is 96 % of control.
For the compound `Cc1ccc(CN(C)C)c(C(O)c2ccccc2)c1` (stereo not given), the T/C runs as follows: under setting [7], 96 % of control; under setting [8], 96 % of control.
As for `Cc1c(O)c2ccc3ccccc3c2oc1=O`, the T/C reads like this: under setting [9], 97 % of control; under setting [10], 91 % of control.
`CCN(CCO)CC(C)Nc1ccc([N+](=O)[O-])c2sc3ccccc3c(=O)c12` (stereo not given): the T/C (dose: 1.5 mg/kg/injection, schedule: Q01DX Z (ip), vehicle: carboxymethylcellulose (CMC)) is 96 % of control; the T/C (dose: 3.0 mg/kg/injection, schedule: Q01DX Z (ip), vehicle: carboxymethylcellulose (CMC)) is 107 % of control; the T/C (dose: 3.5 mg/kg/injection, schedule: Q01DX Z (ip), vehicle: saline) was 101 % of control; the T/C (dose: 5.3 mg/kg/injection, schedule: Q01DX Z (ip), vehicle: saline) was 115 % of control; the T/C (dose: 6.0 mg/kg/injection, schedule: Q01DX Z (ip), vehicle: carboxymethylcellulose (CMC)) is 100 % of control; the T/C (dose: 8.0 mg/kg/injection, schedule: Q01DX Z (ip), vehicle: saline) was 104 % of control. The T/C (dose: 10.0 mg/kg/injection, schedule: Q01DX Z (ip), vehicle: other) was 107 % of control; the T/C (dose: 12.0 mg/kg/injection, schedule: Q01DX Z (ip), vehicle: carboxymethylcellulose (CMC)) was 110 % of control; the T/C (dose: 12.0 mg/kg/injection, schedule: Q01DX Z (ip), vehicle: saline) was 105 % of control and 89 % of control; the T/C (dose: 18.0 mg/kg/injection, schedule: Q01DX Z (ip), vehicle: saline) was 91 % of control; the T/C (dose: 30.0 mg/kg/injection, schedule: Q01DX Z (ip), vehicle: other) was 156 % of control; the T/C (dose: 40.0 mg/kg/injection, schedule: Q01DX Z (ip), vehicle: saline) is 166 % of control. For the same compound, the T/C is, setting by setting: (dose: 60.0 mg/kg/injection, schedule: Q01DX Z (ip), vehicle: saline) 104 % of control; (dose: 90.0 mg/kg/injection, schedule: Q01DX Z (ip), vehicle: other) 121 % of control; (dose: 90.0 mg/kg/injection, schedule: Q01DX Z (ip), vehicle: saline) 89 % of control; (dose: 91.5 mg/kg/injection, schedule: Q01DX Z (ip), vehicle: saline) 160 % of control; under setting [8], 114 % of control; (dose: 137.0 mg/kg/injection, schedule: Q01DX Z (ip), vehicle: saline) 124 % of control. Further, under setting [11], the T/C was 167 % of control and 175 % of control.
In the case of `CCC(=O)O[C@H]1CC[C@H]2[C@@H]3[C@H](C)CC4=CC(=O)CC[C@]4(C)[C@H]3CC[C@]12C`, the T/C under setting [3] is 97 % of control, the T/C under setting [4] is 94 % of control and the T/C under setting [5] was 90 % of control.
With `CNC1C(OC2C(OC3C(O)C(O)C(N=C(N)N)C(O)C3N=C(N)N)OC(C)C2(O)C=O)OC(CO)C(O)C1O` (stereo not given), the T/C is, setting by setting: under setting [8], 108 % of control; under setting [12], 106 % of control; under setting [11], 114 % of control.
Take `CC(=O)c1c(C)[nH]c2ccc(NS(=O)(=O)N(C)C)cc12`: the T/C by setting is: (dose: 75.0 mg/kg/injection, schedule: Q04DX003 (ip), vehicle: Klucel (hydroxypropylcellulose) (HPC)) 96 % of control; (dose: 150.0 mg/kg/injection, schedule: Q04DX003 (ip), vehicle: Klucel (hydroxypropylcellulose) (HPC)) 102 % of control; (dose: 300.0 mg/kg/injection, schedule: Q04DX003 (ip), vehicle: Klucel (hydroxypropylcellulose) (HPC)) 100 % of control.
Take `CC(=O)Oc1cc(C(C)=O)c(O)c2ccccc12`: the T/C was 95 % of control (dose: 100.0 mg/kg/injection, schedule: Q01DX001 (ip), vehicle: water) and 93 % of control (dose: 200.0 mg/kg/injection, schedule: Q01DX001 (ip), vehicle: water).
For the compound `CCCC(=O)OC(OC(=O)CCC)c1ccco1`, the T/C by setting is: under setting [8], 92 % of control; under setting [12], 109 % of control; under setting [11], 109 % of control.
As for `CNC(=S)N/N=C(\C=N\NC(=S)NC)c1ccc(C)cc1`, the T/C runs as follows: (dose: 100.0 mg/kg/injection, schedule: Q04DX002 (ip), vehicle: Klucel (hydroxypropylcellulose) (HPC)) 106 % of control; (dose: 200.0 mg/kg/injection, schedule: Q04DX002 (ip), vehicle: Klucel (hydroxypropylcellulose) (HPC)) 100 % of control; (dose: 400.0 mg/kg/injection, schedule: Q04DX002 (ip), vehicle: Klucel (hydroxypropylcellulose) (HPC)) 103 % of control.
With `CCCCCCc1cc2c(cc1CCCC)CCC2`, the T/C by setting is: under setting [7], 95 % of control; under setting [8], 101 % of control; under setting [12], 98 % of control; under setting [11], 116 % of control.
With `COc1cccc(CCNC(=O)CC(=O)O)c1OC`, the T/C by setting is: under setting [9], 92 % of control; under setting [10], 103 % of control; (dose: 400.0 mg/kg/injection, schedule: Q04DX003 (ip), vehicle: saline) 110 % of control.
On to `O/N=C1\CC(c2ccccc2)(c2ccccc2)c2cc(-c3ccccc3)c(-c3ccccc3)cc21`, for which the T/C runs as follows: (dose: 50.0 mg/kg/injection, schedule: Q01DX009 (ip), vehicle: saline with Tween-80) 97 % of control; (dose: 100.0 mg/kg/injection, schedule: Q01DX009 (ip), vehicle: saline with Tween-80) 104 % of control; (dose: 200.0 mg/kg/injection, schedule: Q01DX009 (ip), vehicle: saline with Tween-80) 97 % of control.
For the compound `C/C=C(/C)c1ccccc1`, the T/C is 95 % of control under setting [3], 95 % of control under setting [4] and 95 % of control under setting [5].
For `CCCCSP(Oc1ccccc1)SCCCC`, the T/C under setting [6] is 89 % of control.
In the case of `CC(F)C(Br)C(=O)O` (stereo not given), the T/C (dose: 100.0 mg/kg/injection, schedule: Q04DX002 (ip), vehicle: saline) is 90 % of control and the T/C (dose: 200.0 mg/kg/injection, schedule: Q04DX002 (ip), vehicle: saline) was 90 % of control.
`COP(=O)(OC)C1CC2CCC1C2` (stereo not given): the T/C (dose: 100.0 mg/kg/injection, schedule: Q04DX003 (ip), vehicle: acetone) is 102 % of control; the T/C (dose: 200.0 mg/kg/injection, schedule: Q04DX003 (ip), vehicle: acetone) is 102 % of control; the T/C (dose: 400.0 mg/kg/injection, schedule: Q04DX003 (ip), vehicle: acetone) is 100 % of control.
Regarding `Cc1csc(C)n1.Cc1csc(C)n1.Cc1csc(C)n1.Cc1csc(C)n1.[Cl][Rh][Cl]`, the T/C (dose: 3.13 mg/kg/injection, schedule: Q04DX003 (ip), vehicle: distilled water + Tween-80) is 105 % of control; the T/C (dose: 6.25 mg/kg/injection, schedule: Q04DX003 (ip), vehicle: distilled water + Tween-80) was 102 % of control; the T/C (dose: 12.5 mg/kg/injection, schedule: Q04DX003 (ip), vehicle: distilled water + Tween-80) is 100 % of control; the T/C (dose: 25.0 mg/kg/injection, schedule: Q04DX003 (ip), vehicle: distilled water + Tween-80) was 110 % of control.
Consider `CC(C)(C)N1CCC1CN` (stereo not given), for which the T/C is 104 % of control (dose: 75.0 mg/kg/injection, schedule: Q01DX001 (ip), vehicle: saline); 102 % of control (dose: 150.0 mg/kg/injection, schedule: Q01DX001 (ip), vehicle: saline); 102 % of control (dose: 300.0 mg/kg/injection, schedule: Q01DX001 (ip), vehicle: saline).
